Earlier results, collected in patent publication US20250312353A1, “DRUG R[…] TREATMENT OF […] MALFORMATIONS” (University of South Carolina, priority 2024, published 2025).

Legend:
host macrophage = settings: bacterial infection
[1] = tested on: human lung tumor associated endothelial cell; settings: on matrigel; even in the presence of VEGF

Structure (SMILES): COc1nc2ccc(Br)cc2cc1[C@@H](c1ccccc1)[C@@](O)(CCN(C)C)c1cccc2ccccc12 [bedaquiline]
- effect on host macrophage innate immune resistance (host macrophage): activate host macrophage innate immune resistance to bacterial infection
- effect on capillary network formation [1]: inhibit capillary network formation
